Data reported in PubChem BioAssay (NCI).
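Compound exposure: 48 hours, 5 concentrations, 96-well plates. GI50 = concentration required for 50% inhibition of growth. TGI denotes the concentration required for complete inhibition of growth.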

Assays:
Experiment in all cases: growth of human tumour cells (NCI), 48 h
[1] = system: NCI-H23 lung
[2] = system: NCI-H460 lung
[3] = system: NCI-H522 lung
[4] = system: NCI/ADR-RES ovarian
[5] = system: OVCAR-3 ovarian
[6] = system: OVCAR-4 ovarian
[7] = system: OVCAR-5 ovarian
[8] = system: OVCAR-8 ovarian
[9] = system: PC-3 prostate
[10] = system: RPMI-8226 leukemia
[11] = system: RXF 393 renal
[12] = system: SF-268 CNS
[13] = system: SF-295 CNS
[14] = system: SF-539 CNS
[15] = system: SK-MEL-2 melanoma
[16] = system: SK-MEL-28 melanoma
[17] = system: SK-MEL-5 melanoma
[18] = system: SK-OV-3 ovarian
[19] = system: SN12C renal
[20] = system: SNB-19 CNS
[21] = system: SNB-75 CNS
[22] = system: SR leukemia
[23] = system: SW-620 colon
[24] = system: T-47D breast
[25] = system: TK-10 renal
[26] = system: U251 CNS
[27] = system: UACC-257 melanoma
[28] = system: UACC-62 melanoma
[29] = system: UO-31 renal

## CC(C)(C)c1[nH]nc2c1C(c1cc3ccccc3[nH]c1=O)Nc1cc(C(=O)Nc3ccc(Cl)cc3)ccc1N2 (configuration not stated)
[1]
  TGI: 7.31 µM
[2]
  GI50: 3.21 µM
  TGI: 18.2 µM
[3]
  GI50: 2710 nM
  TGI: 6.94 µM
[4]
  GI50: > 100 µM
  TGI: > 100 µM
[5]
  GI50: 1930 nM
  TGI: 3.82 µM
[6]
  GI50: 2120 nM
  TGI: 6.96 µM
[7]
  GI50: 3.84 µM
  TGI: 39 µM
[8]
  GI50: 3.04 µM
  TGI: 11 µM
[9]
  GI50: 3.15 µM
  TGI: 11.7 µM
[10]
  GI50: 1900 nM
  TGI: 5.27 µM
[11]
  GI50: 1940 nM
  TGI: 3.7 µM
[12]
  GI50: 3.66 µM
  TGI: 29.5 µM
[13]
  GI50: 2770 nM
  TGI: 8.82 µM
[14]
  GI50: 2340 nM
  TGI: 6.49 µM
[15]
  GI50: 2000 nM
  TGI: 4.05 µM
[16]
  GI50: 3.76 µM
  TGI: 21.5 µM
[17]
  GI50: 1770 nM
  TGI: 3.55 µM
[18]
  GI50: 3.04 µM
  TGI: 8.01 µM
[19]
  GI50: 3.15 µM
  TGI: 14 µM
[20]
  GI50: 2680 nM
  TGI: 11.9 µM
[21]
  GI50: 2270 nM
  TGI: 6.51 µM
[22]
  GI50: 2560 nM
  TGI: > 24.9 µM
[23]
  GI50: 3.13 µM
  TGI: 12.3 µM
[24]
  GI50: 2500 nM
  TGI: 9.14 µM
[25]
  GI50: 3.71 µM
  TGI: 17.2 µM
[26]
  GI50: 3.08 µM
  TGI: 11.4 µM
[27]
  GI50: 2330 nM
  TGI: 7.31 µM
[28]
  GI50: 2030 nM
  TGI: 4.41 µM
[29]
  GI50: 46 µM
  TGI: > 100 µM
